In BindingDB's records for doi:10.7270/Q2ZC817P (The Scripps Research Institute Molecular Screening Center, 2007):
Structures can show the parent of a compound that is named as a salt.

target: Sphingosine 1-phosphate receptor 1 (Homo sapiens, UniProt P21453); assay: potentiators of S1P1 agonist response, dose response, cell-based, potentiator mode, 60K MLSMR set (AID 466); conditions: not given
Sequence (P21453 whole entry): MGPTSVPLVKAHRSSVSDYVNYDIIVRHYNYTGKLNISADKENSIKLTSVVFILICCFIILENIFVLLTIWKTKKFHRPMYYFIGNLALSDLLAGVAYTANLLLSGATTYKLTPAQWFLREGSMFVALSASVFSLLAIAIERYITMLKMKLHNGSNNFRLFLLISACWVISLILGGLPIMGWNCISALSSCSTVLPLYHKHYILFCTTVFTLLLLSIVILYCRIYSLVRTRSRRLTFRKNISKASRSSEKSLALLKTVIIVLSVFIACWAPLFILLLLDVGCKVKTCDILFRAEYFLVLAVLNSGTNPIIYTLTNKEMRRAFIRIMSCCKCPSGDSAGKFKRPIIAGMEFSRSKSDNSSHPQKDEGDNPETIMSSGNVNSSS

SMILES	EC50 [µM]
O=C(Nc1cccc(C(F)(F)F)c1)N1CCC(c2nc(-c3ccc(F)cc3)no2)CC1 [4-[3-(4-Fluoro-phenyl)-[1,2,4]oxadiazol-5-yl]-piperidine-1-carboxylic acid (3-trifluoromethyl-phenyl)-amide]	6.42
Cc1cc(N2CCN(C/C=C/c3ccccc3)CC2)n2ncnc2n1 [5-Methyl-7-[4-((E)-3-phenyl-allyl)-piperazin-1-yl]-[1,2,4]triazolo[1,5-a]pyrimidine]	> 30
Cc1nc2ccccc2c2oc(C(=O)NCC3COc4ccccc4O3)cc12 (stereo not given) [MLS000118430]	9.7
CCCc1cc(C(=O)Nc2sc3c(c2C#N)CCC3)no1 [MLS000116386]	> 95
CCc1cc2c(N3CCN(c4ccccc4)CC3)ncnc2s1 [6-ethyl-4-(4-phenyl-1-piperazinyl)thieno[2,3-d]pyrimidine]	8.06
CC(Oc1ccccc1Br)C(=O)N1CCc2ccccc21 (stereo not given) [1-[2-(2-bromophenoxy)propanoyl]indoline]	7.23
CCCCn1ccnc1C(=O)c1cccc(S(=O)(=O)N2c3ccccc3CC2C)c1 (stereo not given) [(1-butyl-2-imidazolyl)-[3-[(2-methyl-2,3-dihydroindol-1-yl)sulfonyl]phenyl]methanone]	9.16
COc1ccc(-c2nc3cc(NC(=O)Cc4ccc(OC)c(OC)c4)ccc3o2)cc1 [2-(3,4-dimethoxyphenyl)-N-[2-(4-methoxyphenyl)-1,3-benzoxazol-5-yl]acetamide]	9.09
O=S(=O)(CCSc1ccccn1)c1nc2ccccc2s1 [2-(2-pyridin-2-ylsulfanylethylsulfonyl)-1,3-benzothiazole]	9.83
Cc1ccccc1-c1noc(-c2ccc(O)cc2)n1 [4-[3-(2-methylphenyl)-2H-1,2,4-oxadiazol-5-ylidene]-1-cyclohexa-2,5-dienone]	8.25
COc1cc(C(=O)N2CCN(S(=O)(=O)c3ccc(C)cc3)CC2)ccc1OCc1c(C)noc1C [MLS000056221]	> 95
COc1cc(C#CC#CCN2CCCCC2)ccc1O [2-methoxy-4-(5-piperidin-1-ylpenta-1,3-diynyl)phenol;hydrochloride]	7.1
CC(=N)C(C#N)C(=O)CSc1nc2cc(Cl)ccc2s1 (stereo not given) [(E)-3-amino-2-[2-[(5-chloro-1,3-benzothiazol-2-yl)sulfanyl]acetyl]but-2-enenitrile]	11.1
CCOC(=O)c1sc2nc(NC(=O)C3CCCCC3)sc2c1C [2-(cyclohexanecarbonylamino)-6-methyl-thieno[2,3-d]thiazole-5-carboxylic acid ethyl ester]	> 30
Nc1ccc(N2CCCCCC2)cc1 [4-(1-azepanyl)aniline;hydrochloride]	> 30
Clc1ccc(OCc2nnc(-c3ccccc3Br)o2)c(Cl)c1 [2-(2-bromophenyl)-5-[(2,4-dichlorophenoxy)methyl]-1,3,4-oxadiazole]	> 95
COC(=O)c1ccc2c(=O)n(C3CCCCC3)c(SCC#N)nc2c1 [2-(cyanomethylthio)-3-cyclohexyl-4-keto-quinazoline-7-carboxylic acid methyl ester]	6.9
COCCn1c(C)cc(C(=O)CSc2nc3ccccc3o2)c1C [2-(1,3-benzoxazol-2-ylsulfanyl)-1-[1-(2-methoxyethyl)-2,5-dimethyl-pyrrol-3-yl]ethanone]	> 95
O=C(Nc1ccc(Cl)cc1)N1CCC(c2nc(-c3ccc(F)cc3)no2)CC1 [4-[3-(4-Fluoro-phenyl)-[1,2,4]oxadiazol-5-yl]-piperidine-1-carboxylic acid (4-chloro-phenyl)-amide]	5.9
COc1ccc(-c2nc(-c3ccc(Br)o3)no2)cc1OC [3-(5-bromanylfuran-2-yl)-5-(3,4-dimethoxyphenyl)-1,2,4-oxadiazole]	5.87
CCOc1ccc(C(C)=O)cc1-n1c(O)c2c(c1O)C1C=CC2O1 [MLS000087730]	10.8
CC(C)N1C(=O)CCC1C(=O)N1CCC(Cc2ccccc2)CC1 (stereo not given) [5-(4-benzylpiperidine-1-carbonyl)-1-isopropyl-2-pyrrolidone]	> 95
CC(C)COC(=O)NCCOC(=O)Nc1cccc(Cl)c1 [2-(2-methylpropoxycarbonylamino)ethyl N-(3-chlorophenyl)carbamate]	8.05
c1ccc(N2CCN(c3ncnc4c3oc3ccccc34)CC2)cc1 [4-(4-phenyl-1-piperazinyl)benzofuro[3,2-d]pyrimidine]	> 95

Second part, the compound after the results:

EC50 [µM]	SMILES
2.14	CC(C)c1ccc2oc(-c3ccc(N)cc3)nc2c1 [4-(5-propan-2-yl-1,3-benzoxazol-2-yl)aniline]
1.22	COCCn1c(C)cc(C(=O)CSc2nnc(-c3cccnc3)n2-c2ccccc2F)c1C [2-[[4-(2-fluorophenyl)-5-(3-pyridinyl)-1,2,4-triazol-3-yl]thio]-1-[1-(2-methoxyethyl)-2,5-dimethyl-3-pyrrolyl]ethanone]
2.81	Cc1ccc2oc(-c3ccc(NC(=O)c4cccnc4)cc3)nc2c1 [MLS000068975]
1.4	Cc1ccc(-c2csc(N3CCC(NS(=O)(=O)c4ccc5c(c4)OCCO5)CC3)n2)cc1 [N-[1-[4-(4-methylphenyl)-1,3-thiazol-2-yl]piperidin-4-yl]-2,3-dihydro-1,4-benzodioxine-6-sulfonamide]
4.71	CC(C)(C)C1CCC2(CC1)C(C#N)=C(SCC(=O)Nc1ccccc1)NC(=O)C2C#N (stereo not given) [2-[(9-tert-butyl-1,5-dicyano-2-oxidanylidene-3-azaspiro[5.5]undec-4-en-4-yl)sulfanyl]-N-phenyl-ethanamide]
2.96	CCCN(C(=O)c1cccs1)c1nnc(-c2ccncc2)s1 [MLS000074637]
0.778	O=C(Nc1ccccc1C(F)(F)F)c1cc(-c2ccc(O)cc2)on1 [5-(4-hydroxyphenyl)-N-[2-(trifluoromethyl)phenyl]isoxazole-3-carboxamide]
1.44	c1csc(CCNc2ncnc3sc4c(c23)CCC4)c1 [7,8-dihydro-6H-cyclopenta[4,5]thieno[1,2-c]pyrimidin-1-yl-[2-(2-thienyl)ethyl]amine]
4.86	Cc1cccc(OCCCCc2c(C)n[nH]c2C)c1C [SMR000103133]
1.12	Cc1ccc(C(C)C)c(OCc2nc(-c3nonc3N)no2)c1 [4-[5-[(5-methyl-2-propan-2-yl-phenoxy)methyl]-1,2,4-oxadiazol-3-yl]-1,2,5-oxadiazol-3-amine]
3.01	CN(C)c1oc(-c2ccc(OCc3ccccc3)cc2)nc1C#N [2-(4-benzoxyphenyl)-5-(dimethylamino)oxazole-4-carbonitrile]
2.21	O=S(=O)(NCc1ccncc1)c1ccc(Br)s1 [5-bromanyl-N-(pyridin-4-ylmethyl)thiophene-2-sulfonamide]
4.46	Cn1nc(C(C)(C)C)cc1C(=O)NCc1ccc(N2CCCC2=O)cc1 [5-tert-Butyl-2-methyl-2H-pyrazole-3-carboxylic acid 4-(2-oxo-pyrrolidin-1-yl)-benzylamide]
5.42	Cc1cccc(-c2nc(CSCC(=O)N3CCN(Cc4ccc5c(c4)OCO5)CC3)c(C)o2)c1 [1-(1,3-benzodioxol-5-ylmethyl)-4-[({[5-methyl-2-(3-methylphenyl)-1,3-oxazol-4-yl]methyl}thio)acetyl]piperazine]
4.27	c1ccc(CNc2ncnc3ccccc23)cc1 [N-benzylquinazolin-4-amine]
2.6	COc1cc(-c2noc(C3CCCN(S(=O)(=O)c4cccc(Cl)c4)C3)n2)cc(OC)c1OC (stereo not given) [1-(3-Chloro-benzenesulfonyl)-3-[3-(3,4,5-trimethoxy-phenyl)-[1,2,4]oxadiazol-5-yl]-piperidine]
3.67	CCc1c(C)sc(NC(=O)c2cc(-c3ccco3)on2)c1C#N [MLS000087225]
3.57	COc1cccc(N2CCN(c3ncnc4c3[nH]c3ccccc34)CC2C)c1 (stereo not given) [4-[4-(3-methoxyphenyl)-3-methyl-1-piperazinyl]-5H-pyrimido[5,4-b]indole]
4.86	O=C(CSc1nnc(Cn2nnc3ccccc32)o1)N(Cc1ccc(F)cc1)c1ccccc1 [2-(5-Benzotriazol-1-ylmethyl-[1,3,4]oxadiazol-2-ylsulfanyl)-N-(4-fluoro-benzyl)-N-phenyl-acetamide]

same assay, conditions: inactive by the depositor's call

EC50 [µM]	SMILES
27.9	Cc1ccc(-c2nc(COC(=O)c3c(C)noc3C)cs2)cc1 [3,5-dimethyl-4-isoxazolecarboxylic acid [2-(4-methylphenyl)-4-thiazolyl]methyl ester]
19.9	O=C(Nc1ccc(Oc2ccccc2)cc1)c1cnc2n(c1=O)CCS2 [5-keto-N-(4-phenoxyphenyl)-2,3-dihydrothiazolo[3,2-a]pyrimidine-6-carboxamide]
10.6	Oc1ccc(N2CCN(c3ncnc4sc5c(c34)CCC5)CC2)cc1 [4-[4-(7,8-dihydro-6H-cyclopenta[4,5]thieno[1,2-c]pyrimidin-1-yl)-1-piperazinyl]phenol]
11.9	CS(=O)(=O)n1nc(OC(=O)c2cccc3ccccc23)cc1N [(5-amino-1-methylsulfonylpyrazol-3-yl) naphthalene-1-carboxylate]
16.5	CC(C)Cc1cc(C(=O)Nc2cc(Br)ccc2O)no1 [MLS000116399]
10.6	Cc1cccc(OCCCCc2c(C)n[nH]c2C)c1 [SMR000103102]
16.5	Cc1ccc2nc(NC(=O)CSc3nc4c(c(=O)n3C)SC(C)C4)sc2c1 (stereo not given) [2-[(3,6-dimethyl-4-oxidanylidene-6,7-dihydrothieno[3,2-d]pyrimidin-2-yl)sulfanyl]-N-(6-methyl-1,3-benzothiazol-2-yl)ethanamide]
20.4	c1ccc(CSc2nnc(-c3cccs3)o2)cc1 [2-(benzylthio)-5-(2-thienyl)-1,3,4-oxadiazole]
10.4	CC1Cc2cc(-c3csc(NC(=O)Cc4cccs4)n3)ccc2N1S(C)(=O)=O (stereo not given) [MLS000027766]
23.4	CCN(CC)S(=O)(=O)c1cccc(S(=O)(=O)c2cccc(S(=O)(=O)N(CC)CC)c2)c1 [3-[3-(diethylsulfamoyl)phenyl]sulfonyl-N,N-diethyl-benzenesulfonamide]
12.6	Cc1ccc(C(=O)c2cncc(Br)c2)cc1 [(5-bromanylpyridin-3-yl)-(4-methylphenyl)methanone]
12.6	CCOc1ccc(Cc2nc(-c3nonc3N)no2)cc1OCC [4-[5-(3,4-diethoxybenzyl)-1,2,4-oxadiazol-3-yl]-1,2,5-oxadiazol-3-amine]
